According to US8568986B2, “Method of selecting an agent that improves periodontal disease” (Kao Corporation, priority 2009, dated 2013):

Key:
[1] = test system: Vibrio harveyi BB170 strain (AI-2 reporter bacterium); test: AI-2 activity inhibitory effect, photogenesis intensity of AI-2 reporter bacterium after addition of DPD; assay type: cell-based; details: relative to control with only DPD added (=100); 10 min preincubation, 4 h culture at 30° C
Experimental: The method of screening an improving agent or preventive agent for periodontal disease of the present invention containing mixing a bacterium having an autoinducer-2-mediated quorum sensing system with a test drug and selecting a test drug having an autoinducer-2 activity inhibitory effect as an improving agent or preventive agent for periodontal disease. For example, a Vibrio harveyi BB 170 strain is prepared in a culture medium at 1000- to 10000-fold dilution (preferably 4000- to 5000-fold) and preincubated with a test compound solution at room temperature for 1 to 30 minutes (preferably for 10 minutes). Then, AI-2 was added to the resultant solution, which was subjected to aerobic shaking culture at 30±5° C. Two (2) to six (6) hours later (preferably four (4) hours later), the photogenesis intensity is measured with a chemiluminescence analyzer. The final concentration of AI-2 is from 0.001 to 100 μM (preferably 10 μM). The final concentration of the test compound solutions is from 0.0001 to 0.1% or from 1 to 100 μM. Each concentration is not limited thereto. The photogenesis intensity when a control obtained by adding only the AI-2 is mixed with the test compound solution is measured as a relative value to the photogenesis intensity of control so that the AI-2 activity inhibitory effect of the test compound can be measured. The bacterium having an autoinducer-2-mediated quorum sensing system is not particularly limited. A reporter bacterium which recognizes the autoinducer-2 thereby emitting light is preferred and dental bacteria and periodontal pathogens can also be used. Further, the bacterium having an autoinducer-2-mediated quorum sensing system which is collected from the oral cavity of a subject can also be used as a specimen.
A Vibrio harveyi BB170 strain (cultured in an AB medium at 30° C. overnight) was used as an AI-2 reporter bacterium and it was 4500-fold diluted with an AB culture medium to prepare a reporter bacterium liquid. A reporter bacterium liquid was mixed with each of the test drugs, which was preincubated at room temperature for 10 minutes, followed by addition of DPD and aerobic shaking culture at 30° C. Four (4) hours later, the photogenesis intensity was measured with the chemiluminescence analyzer (LB940 type, manufactured by Berthold Japan co. ltd.). AI-2 was quantified from the measured photogenesis intensity in the same manner as described in Example 1.
The amount of AI-2 was a relative value to the amount of DPD of the control (the amount of AI-2) when one obtained by adding only the DPD without adding the test drugs was used as a control.

syrian hamsters = test: Alveolar bone resorption in floss-tied mandibular first molars of syrian hamsters; assay type: in vivo; details: syrian hamster; for Alveolar bone resorption depth (mm): 200 μL of 10 μM solution dropwise to floss-tied first molars twice a day for two weeks, control 2.87; for absorption of the alveolar bone: added dropwise to the oral cavity for two weeks
Experimental: The mandibule of syrian hamsters (three males, 7 weeks old) was extracted under anesthesia and a photograph was taken under the stereoscopic microscope. An evaluation site is the lingual surface of extraction mandibule. The obtained photographs were subjected to image analysis and a vertical distance from the first molar mesial cusp tip to the alveolar tip was measured.
Floss was tied around the left and right mandibular first molar teeth of other syrian hamsters (three males, 7 weeks old). From the next day on, 200 μL of a PBS solution containing 1% DMSO (concentration: 10 μM) of Compound 1 or 2 above was added dropwise to the same tied sites twice a day for two weeks and they were bred.
After the end of breeding, the mandibule was extracted under anesthesia and photographs were taken under the stereoscopic microscope. An evaluation site is the lingual surface of extraction mandibule and the taken photographs were subjected to image analysis. […] a vertical distance from the first molar mesial cusp tip to the alveolar tip was measured.
The alveolar bone resorption depth (a value before addition is subtracted from a value after addition for two weeks) was measured from the vertical distance from the first molar mesial cusp tip to the alveolar tip before addition of the test drug and after addition of the test drug for two weeks.

SMILES	AI-2 amount (relative value) [1]	Alveolar bone resorption depth (mm) (syrian hamsters)	absorption of the alveolar bone (syrian hamsters)
COc1ccc(C2OC(=O)C=C2Br)cc1 (centres unmarked) [Compound 1, 4-bromo-5-(4-methoxyphenyl)-2(5H)-furanone]	29.6	2.50	suppressed
O=C1OC(O)C(Br)=C1Br (centres unmarked) [Compound 2, 3,4-dibromo-5-hydroxy-2(5H)-furanone]	0	2.62	suppressed
COc1ccc(C2(OC)OC(=O)C=C2Br)cc1 (centres unmarked) [Compound 3, 4-bromo-5-methoxy-5-(4-methoxyphenyl)-2(5H)-furanone]	62.5	–	–
COc1ccc(C2(Oc3ccc(C(=O)O)cc3)OC(=O)C=C2Br)cc1 (centres unmarked) [Compound 4, 4-{[3-bromo-2-(4-methoxyphenyl)-5-oxo-2,5-dihydro-2-furanyl]oxy}benzoate]	76.0	–	–
CC1=C(O)C(=O)C(C)O1 (centres unmarked) [Compound 5, 4-hydroxy-2,5-dimethyl-3(2H)-furanone, reference compound]	77.0	–	–
COC1(c2ccccc2)OC=C(c2ccccc2)C1=O (centres unmarked) [Compound 6, 2-methoxy-2,4-diphenyl-3(2H)-furanone, reference compound]	88.9	–	–
CCCCCC1=CCCC1=O [Compound 7, 2-pentyl-2-cyclopentene-1-one, reference compound]	63.4	–	–
